Source: ChEMBL document CHEMBL4257529, “Antifungal amphiphilic kanamycins: new life for an old drug” (Medchemcomm, 2018)

Experiments:
Assay type in all cases: functional
Fusarium graminearum [1] = assay: Antifungal activity against Fusarium graminearum infected in wheat plant assessed as fusarium head blight index at 0.512 L/ha (reference value: 53%)
Fusarium graminearum [2] = assay: Antifungal activity against Fusarium graminearum infected in wheat plant assessed as fusarium head blight severity at 1.02 L/ha (reference value: 75%)
Fusarium graminearum [3] = assay: Antifungal activity against Fusarium graminearum infected in wheat plant assessed as fusarium head blight incidence at 1.02 L/ha (reference value: 70%)
Fusarium graminearum [4] = assay: Antifungal activity against Fusarium graminearum infected in wheat plant assessed as fusarium head blight incidence at 0.512 L/ha (reference value: 70%)
Fusarium graminearum [5] = assay: Antifungal activity against Fusarium graminearum infected in wheat plant assessed as fusarium head blight index at 1.02 L/ha (reference value: 53%)
Fusarium graminearum [6] = assay: Antifungal activity against Fusarium graminearum infected in wheat plant assessed as fusarium head blight severity at 0.512 L/ha (reference value: 75%)

Work on `CC1(C)CCC(Cc2ccc(Cl)cc2)C1(O)Cn1cncn1` (stereo unspecified) [METCONAZOLE] yielded an Activity_index (Fusarium graminearum [1]) of 9%, an Activity (Fusarium graminearum [2]) of 58% and an Activity (Fusarium graminearum [3]) of 12%. It also gave an Activity (Fusarium graminearum [4]) of 13%, an Activity_index (Fusarium graminearum [5]) of 7% and an Activity (Fusarium graminearum [6]) of 69%.
